Experimental data published in ChEMBL document CHEMBL1201862, “PubChem BioAssay data set” (2004).
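Step 1: Grow cells in 96-well plates. Step 2: Expose to compound for 48 hours at 5 concentrations. Step 3: Interpolate endpoints linearly; if unreached, use highest concentration. The concentration for 50% growth inhibition is given as GI50.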 Activity calls are given as the source filed them. Cut-off read from the data, not from the text of the source: active = GI50 up to about 1.1 µM and inactive = higher.

How the values were obtained:
Assay in all cases: inhibition of tumour cell growth, NCI panel, 48 h
K562 = test system: K562
SW-620 = test system: SW-620
OVCAR-3 = test system: OVCAR-3
A498 = test system: A498
SF-539 = test system: SF-539
M19-MEL = test system: M19-MEL
EKVX = test system: EKVX
HOP-62 = test system: HOP-62
HT-29 = test system: HT-29
SF-268 = test system: SF-268
HCT-15 = test system: HCT-15
OVCAR-8 = test system: OVCAR-8
HCC 2998 = test system: HCC 2998
DMS-114 = test system: DMS-114
U-251 = test system: U-251
HCT-116 = test system: HCT-116
RXF 393 = test system: RXF 393
Malme-3M = test system: Malme-3M
KM-20L2 = test system: KM-20L2
HOP-92 = test system: HOP-92
SK-MEL-28 = test system: SK-MEL-28
HOP-18 = test system: HOP-18
MOLT-4 = test system: MOLT-4
DLD-1 = test system: DLD-1
TK-10 = test system: TK-10
UACC-257 = test system: UACC-257
NCI-H23 = test system: NCI-H23
NCI-H460 = test system: NCI-H460
NCI-H226 = test system: NCI-H226
SNB-19 = test system: SNB-19
UO-31 = test system: UO-31
SK-MEL-2 = test system: SK-MEL-2
786-0 = test system: 786-0
SF-295 = test system: SF-295
ACHN = test system: ACHN
NCI-H522 = test system: NCI-H522
SK-OV-3 = test system: SK-OV-3
LOX IMVI = test system: LOX IMVI
RXF 631 = test system: RXF 631
KM12 = test system: KM12
CCRF-CEM = test system: CCRF-CEM
M14 = test system: M14
LXFL 529 = test system: LXFL 529
SN12C = test system: SN12C
OVCAR-5 = test system: OVCAR-5
SNB-78 = test system: SNB-78
SK-MEL-5 = test system: SK-MEL-5
A549 = test system: A549
OVCAR-4 = test system: OVCAR-4
XF498 = test system: XF498
SNB-75 = test system: SNB-75
UACC-62 = test system: UACC-62
COLO 205 = test system: COLO 205
RPMI-8226 = test system: RPMI-8226
CAKI-1 = test system: CAKI-1
HL-60 = test system: HL-60
DMS-273 = test system: DMS-273
IGROV-1 = test system: IGROV-1
SR = test system: SR

With `[N-]=[N+]=Nc1nnc(CCCCc2nnc(N=[N+]=[N-])o2)o1` the GI50 (K562) was > 100 µM (inactive), the GI50 (SW-620) was > 100 µM (inactive) and the GI50 (OVCAR-3) was > 100 µM (inactive). The GI50 (A498) was > 100 µM (inactive), the GI50 (SF-539) was > 100 µM (inactive) and the GI50 (M19-MEL) was > 100 µM (inactive). For the same molecule, the GI50 (EKVX) was > 100 µM (inactive), the GI50 (HOP-62) was > 100 µM (inactive) and the GI50 (HT-29) was > 100 µM (inactive). For the same molecule, the GI50 (SF-268) was > 100 µM (inactive), the GI50 (HCT-15) was over 100 µM and the GI50 (OVCAR-8) was > 100 µM (inactive). For the same molecule, the GI50 (HCC 2998) was > 100 µM (inactive), the GI50 (DMS-114) was > 100 µM (inactive) and the GI50 (U-251) was > 100 µM (inactive). For the same molecule, the GI50 (HCT-116) was > 100 µM (inactive), the GI50 (RXF 393) was > 100 µM (inactive) and the GI50 (Malme-3M) was > 100 µM (inactive). For the same molecule, the GI50 (KM-20L2) was > 100 µM (inactive), the GI50 (HOP-92) was > 100 µM (inactive) and the GI50 (SK-MEL-28) was > 100 µM (inactive). For the same molecule, the GI50 (HOP-18) was > 100 µM (inactive), the GI50 (MOLT-4) was > 100 µM (inactive) and the GI50 (DLD-1) was > 100 µM (inactive). The GI50 (TK-10) was > 100 µM (inactive), the GI50 (UACC-257) was > 100 µM (inactive) and the GI50 (NCI-H23) was > 100 µM (inactive). The GI50 (NCI-H460) was > 100 µM (inactive), the GI50 (NCI-H226) was > 100 µM (inactive) and the GI50 (SNB-19) was > 100 µM (inactive). The GI50 (UO-31) was > 100 µM (inactive), the GI50 (SK-MEL-2) was > 100 µM (inactive) and the GI50 (786-0) was > 100 µM (inactive). For the same molecule, the GI50 (SF-295) was > 100 µM (inactive), the GI50 (ACHN) was > 100 µM (inactive) and the GI50 (NCI-H522) was > 100 µM (inactive). The GI50 (SK-OV-3) was > 100 µM (inactive), the GI50 (LOX IMVI) was > 100 µM (inactive) and the GI50 (RXF 631) was 25.4 µM (inactive). The GI50 (KM12) was 91.4 µM (inactive), the GI50 (CCRF-CEM) was > 100 µM (inactive) and the GI50 (M14) was > 100 µM (inactive). The GI50 (LXFL 529) was > 100 µM (inactive), the GI50 (SN12C) was > 100 µM (inactive) and the GI50 (OVCAR-5) was > 100 µM (inactive). The GI50 (SNB-78) was > 100 µM (inactive), the GI50 (SK-MEL-5) was > 100 µM (inactive) and the GI50 (A549) was > 100 µM (inactive). The GI50 (OVCAR-4) was > 100 µM (inactive), the GI50 (XF498) was > 100 µM (inactive) and the GI50 (SNB-75) was > 100 µM (inactive). For the same molecule, the GI50 (UACC-62) was > 100 µM (inactive) and the GI50 (COLO 205) was > 100 µM (inactive).
`N#C/C(=C\c1ccccc1Br)C(=O)c1ccccc1` was tested, and the GI50 (K562) was 0.55 µM (active), the GI50 (SW-620) was 2.04 µM (inactive) and the GI50 (OVCAR-3) was > 41.1 µM (inactive). The GI50 (A498) was > 100 µM (inactive), the GI50 (SF-539) was > 91.2 µM (inactive) and the GI50 (M19-MEL) was 33.4 µM (inactive). For the same molecule, the GI50 (EKVX) was > 100 µM (inactive), the GI50 (HOP-62) was 39.7 µM (inactive) and the GI50 (HT-29) was > 57.7 µM (inactive). For the same molecule, the GI50 (SF-268) was > 46 µM (inactive), the GI50 (HCT-15) was 8.34 µM and the GI50 (OVCAR-8) was 11.1 µM (inactive). The GI50 (HCC 2998) was > 95.7 µM (inactive), the GI50 (DMS-114) was 97.1 µM (inactive) and the GI50 (U-251) was > 48.3 µM (inactive). The GI50 (HCT-116) was 2.81 µM (inactive), the GI50 (RPMI-8226) was 9.86 µM (inactive) and the GI50 (RXF 393) was 32.9 µM (inactive). The GI50 (Malme-3M) was > 53.1 µM (inactive), the GI50 (KM-20L2) was > 87.3 µM (inactive) and the GI50 (HOP-92) was > 100 µM (inactive). The GI50 (SK-MEL-28) was > 42.3 µM (inactive), the GI50 (MOLT-4) was 12.2 µM (inactive) and the GI50 (TK-10) was > 63.4 µM (inactive). The GI50 (UACC-257) was > 60 µM (inactive), the GI50 (NCI-H23) was > 40.4 µM (inactive) and the GI50 (NCI-H460) was > 92.9 µM (inactive). For the same molecule, the GI50 (CAKI-1) was > 71.8 µM (inactive), the GI50 (NCI-H226) was > 54.8 µM (inactive) and the GI50 (SNB-19) was 20.4 µM (inactive). The GI50 (UO-31) was > 38.5 µM (inactive), the GI50 (SK-MEL-2) was > 65.5 µM (inactive) and the GI50 (786-0) was 15.8 µM (inactive). The GI50 (SF-295) was 31 µM (inactive), the GI50 (HL-60) was 1.28 µM (inactive) and the GI50 (ACHN) was > 53.8 µM (inactive). The GI50 (NCI-H522) was 58.2 µM (inactive), the GI50 (SK-OV-3) was > 100 µM (inactive) and the GI50 (LOX IMVI) was 11.8 µM (inactive). The GI50 (RXF 631) was > 100 µM (inactive), the GI50 (KM12) was > 54.3 µM (inactive) and the GI50 (CCRF-CEM) was 6.95 µM (inactive). The GI50 (M14) was > 34.8 µM (inactive), the GI50 (LXFL 529) was 12.3 µM (inactive) and the GI50 (SN12C) was > 43.3 µM (inactive). For the same molecule, the GI50 (OVCAR-5) was > 61.7 µM (inactive), the GI50 (SNB-78) was 6.67 µM (inactive) and the GI50 (DMS-273) was 26.8 µM (inactive). For the same molecule, the GI50 (IGROV-1) was > 10 µM (inactive), the GI50 (SK-MEL-5) was 16.5 µM (inactive) and the GI50 (SR) was 13.3 µM (inactive). The GI50 (A549) was > 40.7 µM (inactive), the GI50 (OVCAR-4) was 7.14 µM (inactive) and the GI50 (XF498) was > 50.2 µM (inactive). For the same molecule, the GI50 (UACC-62) was 29.5 µM (inactive) and the GI50 (COLO 205) was > 65.9 µM (inactive).
For `COc1cc2c(c(OC)c1OC)-c1ccc(SC)c(=O)cc1C(CC(=O)Oc1ccc([N+](=O)[O-])cc1)C2` (configuration not stated), the GI50 (K562) was < 0.0444 µM (active), the GI50 (OVCAR-3) was 0.0538 µM (active) and the GI50 (A498) was 0.0469 µM (active). The GI50 (M19-MEL) was 0.18 µM (active), the GI50 (EKVX) was 7.29 µM (inactive) and the GI50 (HOP-62) was 4.44 µM (inactive). The GI50 (SF-268) was 0.137 µM (active), the GI50 (HCT-15) was 0.78 µM and the GI50 (HCC 2998) was 0.119 µM (active). For the same molecule, the GI50 (DMS-114) was 0.0902 µM (active), the GI50 (RXF 393) was 0.0331 µM (active) and the GI50 (KM-20L2) was 0.0476 µM (active). The GI50 (HOP-92) was 0.762 µM (active), the GI50 (SK-MEL-28) was 0.19 µM (active) and the GI50 (HOP-18) was > 33.5 µM (inactive). The GI50 (MOLT-4) was 0.113 µM (active), the GI50 (TK-10) was 4.8 µM (inactive) and the GI50 (UACC-257) was 0.486 µM (active). For the same molecule, the GI50 (NCI-H23) was 0.132 µM (active), the GI50 (CAKI-1) was 0.207 µM (active) and the GI50 (NCI-H226) was 0.128 µM (active). The GI50 (SNB-19) was 1.34 µM (inactive), the GI50 (UO-31) was 1.95 µM (inactive) and the GI50 (SK-MEL-2) was 0.336 µM (active). For the same molecule, the GI50 (HL-60) was 0.226 µM (active), the GI50 (NCI-H522) was 0.0551 µM (active) and the GI50 (SK-OV-3) was 0.0207 µM (active). The GI50 (RXF 631) was < 0.01 µM (active), the GI50 (CCRF-CEM) was 0.0792 µM (active) and the GI50 (M14) was 0.0607 µM (active). The GI50 (OVCAR-5) was 6.1 µM (inactive), the GI50 (SNB-78) was 0.044 µM (active) and the GI50 (IGROV-1) was 0.344 µM (active). For the same molecule, the GI50 (SK-MEL-5) was 0.0726 µM (active), the GI50 (A549) was 0.123 µM (active) and the GI50 (OVCAR-4) was 3.85 µM (inactive). For the same molecule, the GI50 (XF498) was 0.0873 µM (active) and the GI50 (SNB-75) was 0.286 µM (active).
